Molecular target: T1, Recombinant human cathepsin A (Homo sapiens, UniProt P10619)
T1 construct: Recombinant human cathepsin A (residues 29-480, with a C-terminal 10-His tag); 10-His (C); purchased R&D Systems 1049-SE
T1 sequence (P10619 29-312 limits assumed): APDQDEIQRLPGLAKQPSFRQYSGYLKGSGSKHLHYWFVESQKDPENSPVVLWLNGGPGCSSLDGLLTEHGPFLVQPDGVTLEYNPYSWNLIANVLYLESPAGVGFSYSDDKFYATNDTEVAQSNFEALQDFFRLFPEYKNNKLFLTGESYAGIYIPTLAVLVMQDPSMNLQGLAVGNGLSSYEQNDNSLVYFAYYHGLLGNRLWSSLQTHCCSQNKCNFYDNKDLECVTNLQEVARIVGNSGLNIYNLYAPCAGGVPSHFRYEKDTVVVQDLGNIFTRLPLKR
T1 sequence (P10619 327-480 limits assumed): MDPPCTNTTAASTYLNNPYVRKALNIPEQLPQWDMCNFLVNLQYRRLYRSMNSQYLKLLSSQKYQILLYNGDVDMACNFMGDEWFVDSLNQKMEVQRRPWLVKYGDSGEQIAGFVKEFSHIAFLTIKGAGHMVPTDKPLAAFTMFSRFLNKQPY
Assay: Cathepsin A inhibitory activity
Format: biochemical
Conditions: pharmacological test "Cathepsin A inhibitory activity"; IC50 given as class A/B/C; read-out: Activity (2): Cathepsin A inhibitory activity, IC50 class
Procedure: a) Cathepsin A Inhibitory Activity
Recombinant human cathepsin A (residues 29-480, with a C-terminal 10-His tag; R&D Systems, #1049-SE) was proteolytically activated with recombinant human cathepsin L (R&D Systems, #952-CY). Briefly, cathepsin A was incubated at 10 μg/ml with cathepsin L at 1 μg/ml in activation buffer (25 mM 2-(morpholin-4-yl)-ethanesulfonic acid (MES), pH 6.0, containing 5 mM dithiothreitol (DTT)) for 15 min at 37° C. Cathepsin L activity was then stopped by the addition of the cysteine protease inhibitor E-64 (N-(trans-epoxysuccinyl)-L-leucine-4-guanidinobutylamide; Sigma-Aldrich, #E3132; dissolved in activation buffer/DMSO) to a final concentration of 10 μM.
The activated cathepsin A was diluted in assay buffer (25 mM MES, pH 5.5, containing 5 mM DTT) and mixed with the test compound (dissolved in assay buffer containing (v/v) 3% DMSO) or, in the control experiments, with the vehicle in a multiple assay plate. After incubation for 15 min at room temperature, as substrate then bradykinin carrying an N-terminal®Bodipy FL (4,4-difluoro-5,7-dimethyl-4-bora-3a,4a-diaza-s-indacene-3-propionyl) label (JPT Peptide Technologies GmbH; dissolved in assay buffer) was added to the mixture. The final concentration of cathepsin A was 833 ng/ml and the final concentration of labeled bradykinin 2 μM. After incubation for 15 min at room temperature the reaction was stopped by the addition of stop buffer (130 mM 2-(4-(2-hydroxy-ethyl)-piperazin-1-yl)-ethanesulfonic acid, pH 7.4, containing (v/v) 0.013% Triton X-100, 0.13% Coating Reagent 3 (Caliper Life Sciences), 6.5% DMSO and 20 μM ebelactone B (Sigma, # E0886)).
Uncleaved substrate and product were then separated by a microfluidic capillary electrophoresis on a LabChip® 3000 Drug Discovery System (12-Sipper-Chip; Caliper Life Sciences) and quantified by determination of the respective peak areas. Substrate turnover was calculated by dividing product peak area by the sum of substrate and product peak areas, and the enzyme activity and the inhibitory effect of the test compound thus quantified. From the percentage of inhibition of cathepsin A activity observed with the test compound at several concentrations, the inhibitory concentration IC50, i.e. the concentration which effects 50% inhibition of enzyme activity was, calculated.

Structure (SMILES) | IC50 [nM]
O=C(O)CC(NC(=O)c1cc(O)n(-c2ccc(F)cc2F)n1)c1ccc(-c2ccc(F)cc2)cc1 (stereo not shown) [Example 202] | 100 to 1000
O=C(O)C[C@H](NC(=O)c1cc(O)n(-c2ccc(F)cc2F)n1)c1ccccc1Br [Example 175] | 100 to 1000

The next lines start with the values.

IC50 [nM] | Structure (SMILES)
1000 to 30000 | O=C(O)C[C@H](NC(=O)c1cc(O)n(-c2ccccc2Cl)n1)c1ccc(-c2ccc(F)cc2)cc1 [Example 148]
100 to 1000 | Cc1cccc([C@H](CC(=O)O)NC(=O)c2cc(O)n(-c3ccc(F)cc3F)n2)c1 [Example 190]
100 to 1000 | O=C(O)CC(NC(=O)c1cc(O)n(-c2ccccc2Cl)n1)c1cccc(C(F)(F)F)c1F (stereo not shown) [Example 221, 3-{[1-(2-Chloro-phenyl)-5-hydroxy-1H-pyrazole-3-carbonyl]-amino}-3-(2-fluoro-3-trifluoromethyl-phenyl)-propionic acid]
100 to 1000 | O=C(O)C[C@H](NC(=O)c1cc(O)n(-c2ccc(Cl)cc2)n1)c1ccccc1Br [Example 270]

Same assay, conditions: read-out: Activity (2): Cathepsin A inhibitory activity (IC50 class)

Structure (SMILES) | IC50 [nM]
COc1ccc(C(CC(=O)O)NC(=O)c2cc(OCC3CC3)n(-c3ccccc3F)n2)c(Cl)c1 (stereo not shown) [Example 705] | < 100
CCOc1cc(C(=O)NC(CC(=O)O)c2ccc(C)cc2C)nn1-c1ccccc1Cl (stereo not shown) [Example 728] | < 100
O=C(O)CC(NC(=O)c1cc(O)n(-c2ccccc2F)n1)c1ccc(-n2cncn2)cc1 (stereo not shown) [Example 550, 3-{[1-(2-Fluoro-phenyl)-5-hydroxy-1H-pyrazole-3-carbonyl]-amino}-3-(4-[1,2,4]triazol-1-yl-phenyl)-propionic acid] | 100 to 1000
CCOc1cc(C(=O)N[C@@H](CC(=O)O)c2ccccc2Cl)nn1-c1ccccc1Cl [Example 737] | < 100
CCC(C)(O)COc1cc(C(=O)N[C@@H](CC(=O)O)c2ccccc2C)nn1-c1ccccc1F (stereo partly shown) [Example 750] | < 100
CCOc1cc(C(=O)N[C@@H](CC(=O)O)c2ccccc2)nn1-c1ccccc1Cl [Example 726] | 100 to 1000
CC(C)[C@](C)(O)COc1cc(C(=O)N[C@@H](CC(=O)O)c2ccccc2C(F)(F)F)nn1-c1ccccc1F [Example 784, (S)-3-{[1-(2-Fluoro-phenyl)-5-((S)-2-hydroxy-2,3-dimethyl-butoxy)-1H-pyrazole-3-carbonyl]-amino}-3-(2-trifluoromethyl-phenyl)-propionic acid] | < 100
CCOc1cc(C(=O)N[C@@H](CC(=O)O)c2cccc(C)c2)nn1-c1ccccc1F [Example 712] | < 100
O=C(O)CC(NC(=O)c1cc(O)n(-c2ccccc2Cl)n1)c1ccc(-c2ccccc2Cl)cc1 (stereo not shown) [Example 591] | 100 to 1000

Same assay, conditions: read-out: Activity (2): Cathepsin A inhibitory activity, IC50 class

Structure (SMILES) | IC50 [nM]
Cc1ccc([C@H](CC(=O)O)NC(=O)c2cc(OC[C@](C)(O)C(C)C)n(-c3ccccc3F)n2)c(C)c1 [Example 859, (S)-3-(2,4-Dimethyl-phenyl)-3-{[1-(2-fluoro-phenyl)-5-((R)-2-hydroxy-2,3-dimethyl-butoxy)-1H-pyrazole-3-carbonyl]-amino}-propionic acid] | < 100
CC(C)(C)[C@H](O)COc1cc(C(=O)N[C@@H](CC(=O)O)c2cccc(Cl)c2Cl)nn1-c1ccccc1F [Example 800, (S)-3-(2,3-Dichloro-phenyl)-3-{[1-(2-fluoro-phenyl)-5-((S)-2-hydroxy-3,3-dimethyl-butoxy)-1H-pyrazole-3-carbonyl]-amino}-propionic acid] | < 100
Cc1ccc(C(CC(=O)O)NC(=O)c2cc(O)n(-c3ccc(Cl)cc3)n2)c(C)c1 (stereo not shown) [Example 291] | 100 to 1000
Cc1ccc(C)c(-n2nc(C(=O)NC(CC(=O)O)c3cccnc3)cc2O)c1 (stereo not shown) [Example 35] | 1000 to 30000
COc1ccccc1[C@H](CC(=O)O)NC(=O)c1cc(OC[C@](C)(O)C(C)C)n(-c2ccccc2F)n1 [Example 822, (S)-3-{[1-(2-Fluoro-phenyl)-5-((R)-2-hydroxy-2,3-dimethyl-butoxy)-1H-pyrazole-3-carbonyl]-amino}-3-(2-methoxy-phenyl)-propionic acid] | < 100
Cc1ccc(C)c(-n2nc(C(=O)NC(CC(=O)O)c3ccc(OC(F)(F)F)cc3)cc2O)c1 (stereo not shown) [Example 31] | 1000 to 30000
CCCC(CC(=O)O)NC(=O)c1cc(O)n(-c2cc(C)ccc2C)n1 (stereo not shown) [Example 26] | 1000 to 30000
COc1ccc([C@H](CC(=O)O)NC(=O)c2cc(OC[C@](C)(O)C(C)C)n(-c3ccccc3F)n2)cc1 [Example 850, (S)-3-{[1-(2-Fluoro-phenyl)-5-((R)-2-hydroxy-2,3-dimethyl-butoxy)-1H-pyrazole-3-carbonyl]-amino}-3-(4-methoxy-phenyl)-propionic acid] | < 100
Cc1ccc(C)c(-n2nc(C(=O)NC(CC(=O)O)C(C)C)cc2O)c1 (stereo not shown) [Example 32] | 1000 to 30000
O=C(O)CC(NC(=O)c1cc(O)n(-c2ccccc2F)n1)c1ccc(-c2ccc(F)cc2)cc1 (stereo not shown) [Example 126] | < 100
COc1ccc(C(CC(=O)O)NC(=O)c2cc(O)n(-c3cc(C)ccc3C)n2)cc1OC (stereo not shown) [Example 30] | 1000 to 30000

Other lines, results leading:

IC50 [nM] | Structure (SMILES)
100 to 1000 | O=C(O)C[C@H](NC(=O)c1cc(O)n(-c2ccccc2)n1)c1ccc(Cl)cc1 [Example 98]
1000 to 30000 | O=C(O)CC(NC(=O)c1cc(O)n(-c2ccc(F)cc2)n1)c1ccccc1F (stereo not shown) [Example 343]
1000 to 30000 | O=C(O)CC(NC(=O)c1cc(O)n(-c2ccc(Cl)cc2)n1)c1cccc(Cl)c1F (stereo not shown) [Example 288]
100 to 1000 | O=C(O)C[C@H](NC(=O)c1cc(O)n(-c2ccccc2F)n1)c1ccccc1C(F)(F)F [Example 119]
100 to 1000 | COc1ccc([C@H](CC(=O)O)NC(=O)c2cc(O)n(-c3cccc(F)c3)n2)cn1 [Example 335]
1000 to 30000 | Cc1ccc(C)c(-n2nc(C(=O)NC(CC(=O)O)c3cccc(F)c3)cc2O)c1 (stereo not shown) [Example 49]
100 to 1000 | Cc1cccc([C@H](CC(=O)O)NC(=O)c2cc(O)n(-c3ccccc3F)n2)c1 [Example 404]

Same assay, conditions: recombinant human cathepsin A 833 ng/ml, Bodipy FL-labeled bradykinin 2 μM, pH 5.5; read-out: CATH-A IC50

Structure (SMILES) | IC50 [nM]
O=C(O)CC(NC(=O)c1cc(O)n(-c2ccccc2)n1)c1cc(F)ccc1C(F)(F)F (stereo not shown) [Example 443, 3-(5-Fluoro-2-trifluoromethyl-phenyl)-3-[(5-hydroxy-1-phenyl-1H-pyrazole-3-carbonyl)-amino]-propionic acid] | 220
Cc1c(F)cccc1C(CC(=O)O)NC(=O)c1cc(O)n(-c2ccccc2)n1 (stereo not shown) [Example 494, 3-(3-Fluoro-2-methyl-phenyl)-3-[(5-hydroxy-1-phenyl-1H-pyrazole-3-carbonyl)-amino]-propionic acid] | 142
Cc1ccc(F)cc1C(CC(=O)O)NC(=O)c1cc(O)n(-c2ccccc2Cl)n1 (stereo not shown) [Example 461, 3-{[1-(2-Chloro-phenyl)-5-hydroxy-1H-pyrazole-3-carbonyl]-amino}-3-(5-fluoro-2-methyl-phenyl)-propionic acid] | 151
O=C(O)CC(NC(=O)c1cc(O)n(-c2ccc(Cl)cc2)n1)c1cc(F)ccc1C(F)(F)F (stereo not shown) [Example 473, 3-{[1-(4-Chloro-phenyl)-5-hydroxy-1H-pyrazole-3-carbonyl]-amino}-3-(5-fluoro-2-trifluoromethyl-phenyl)-propionic acid] | 1730
O=C(O)CC(NC(=O)c1cc(O)n(-c2ccccc2F)n1)c1ccc(-n2cncn2)cc1 (stereo not shown) [Example 550, 3-{[1-(2-Fluoro-phenyl)-5-hydroxy-1H-pyrazole-3-carbonyl]-amino}-3-(4-[1,2,4]triazol-1-yl-phenyl)-propionic acid] | 635
O=C(O)CC(NC(=O)c1cc(O)n(-c2ccccc2Cl)n1)c1cccc(C(F)(F)F)c1F (stereo not shown) [Example 221, 3-{[1-(2-Chloro-phenyl)-5-hydroxy-1H-pyrazole-3-carbonyl]-amino}-3-(2-fluoro-3-trifluoromethyl-phenyl)-propionic acid] | 322

Same assay, conditions: recombinant human cathepsin A; read-out: Activity (2): Cathepsin A inhibitory activity, IC50 class

Structure (SMILES) | IC50 [nM]
O=C(O)CC(NC(=O)c1cc(O)n(-c2ccc(Cl)cc2)n1)c1cc(F)ccc1C(F)(F)F (stereo not shown) [Example 473, 3-{[1-(4-Chloro-phenyl)-5-hydroxy-1H-pyrazole-3-carbonyl]-amino}-3-(5-fluoro-2-trifluoromethyl-phenyl)-propionic acid] | 1000 to 30000
COc1ccc(C(CC(=O)O)NC(=O)c2cc(O)n(-c3ccc(F)cc3)n2)c(OC)c1 (stereo not shown) [Example 436] | 1000 to 30000
COc1ccc(C(CC(=O)O)NC(=O)c2cc(O)n(-c3cccc(F)c3)n2)c(C)c1 (stereo not shown) [Example 426] | 100 to 1000

Second part, the molecule after the results:

IC50 [nM] | Structure (SMILES)
100 to 1000 | O=C(O)CC(NC(=O)c1cc(O)n(-c2ccccc2)n1)c1cc(F)ccc1C(F)(F)F (stereo not shown) [Example 443, 3-(5-Fluoro-2-trifluoromethyl-phenyl)-3-[(5-hydroxy-1-phenyl-1H-pyrazole-3-carbonyl)-amino]-propionic acid]
100 to 1000 | Cc1c(F)cccc1C(CC(=O)O)NC(=O)c1cc(O)n(-c2ccccc2)n1 (stereo not shown) [Example 494, 3-(3-Fluoro-2-methyl-phenyl)-3-[(5-hydroxy-1-phenyl-1H-pyrazole-3-carbonyl)-amino]-propionic acid]
100 to 1000 | Cc1ccc(F)cc1C(CC(=O)O)NC(=O)c1cc(O)n(-c2ccccc2Cl)n1 (stereo not shown) [Example 461, 3-{[1-(2-Chloro-phenyl)-5-hydroxy-1H-pyrazole-3-carbonyl]-amino}-3-(5-fluoro-2-methyl-phenyl)-propionic acid]
100 to 1000 | COc1cc(C(=O)N[C@@H](CC(=O)N[C@@H](CO)C(C)C)c2ccccc2C)nn1-c1ccccc1F [Example 927, 1-(2-Fluoro-phenyl)-5-methoxy-1H-pyrazole-3-carboxylic acid [(S)-2-((R)-1-hydroxymethyl-2-methyl-propylcarbamoyl)-1-o-tolyl-ethyl]-amide]
